Source: paper PMC5862892, “Near-native, site-specific and purification-free protein labeling for quantitative protein interaction analysis by MicroScale Thermophoresis” (Scientific Reports, 2018)
“Also recorded” adds a separate entry of the source.

Assays:
His-tag = molecular target: His-tag; parameters: method as in PMID 16028931; conditions: read-out: molecular binding affinity of Ni(II)-NTA for His-tag; cited from earlier work
mNeonGreen-His6 = assay: MST: mNeonGreen-His6 negative control against SB203580 in HeLa cell lysate; type: binding
[1] = molecular target: pUL50 (Human cytomegalovirus) (UniProt P16791); assay: ITC; conditions: cited from earlier work
Sequence of UniProt P16791 (P16791 whole entry): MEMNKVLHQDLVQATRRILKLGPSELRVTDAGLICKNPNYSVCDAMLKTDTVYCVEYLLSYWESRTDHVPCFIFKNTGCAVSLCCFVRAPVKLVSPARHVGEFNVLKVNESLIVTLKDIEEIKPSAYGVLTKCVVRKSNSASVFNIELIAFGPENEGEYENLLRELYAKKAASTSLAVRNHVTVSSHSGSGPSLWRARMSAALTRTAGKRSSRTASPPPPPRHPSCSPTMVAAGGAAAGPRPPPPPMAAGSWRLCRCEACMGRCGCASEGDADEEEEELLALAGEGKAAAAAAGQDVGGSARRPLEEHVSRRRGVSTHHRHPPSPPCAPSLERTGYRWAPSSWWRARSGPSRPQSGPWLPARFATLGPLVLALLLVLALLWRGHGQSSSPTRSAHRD

O=C(O)CN(CC(=O)O)CC(=O)O [NTA, nitrilotriacetic acid]
Kd (His-tag): ~10 µM

C[S+]([O-])c1ccc(-c2nc(-c3ccncc3)c(-c3ccc(F)cc3)[nH]2)cc1 (stereo not drawn) [SB203580]
binding to RED-tris-NTA labeled mNeonGreen-His6 (p38α-free negative control) (mNeonGreen-His6): no binding could be detected; also recorded: did not yield a binding curve

pUL53 (from UniProt P16794)
Kd [1]: 0.29 µM
